Experimental data as given in ChEMBL document CHEMBL4000186, “Design and synthesis of novel 2-substituted 11-keto-boswellic acid heterocyclic derivatives as anti-prostate cancer agents with Pin1 inhibition ability” (Eur J Med Chem, 2017).

Tests used:
LNCaP = test: Anti-proliferative activity against human LNCAP cells measured after 96 hrs by MTT assay; format: functional
PC-3 = test: Anti-proliferative activity against human PC3 cells measured after 96 hrs by MTT assay; format: functional; conditions: PC-3, 96 h
[1] = target: Peptidyl-prolyl cis-trans isomerase NIMA-interacting 1 (Homo sapiens, UniProt Q13526); test: Inhibition of Pin1 (unknown origin) using Suc-Ala-Glu-cis-Pro-Phe-4-nitroanilide as substrate preincubated for 30 mins followed by substrate addition measured for 90 secs by protease-enzyme coupled assay
Peptidyl-prolyl cis-trans isomerase NIMA-interacting 1, sequence (Q13526 whole entry): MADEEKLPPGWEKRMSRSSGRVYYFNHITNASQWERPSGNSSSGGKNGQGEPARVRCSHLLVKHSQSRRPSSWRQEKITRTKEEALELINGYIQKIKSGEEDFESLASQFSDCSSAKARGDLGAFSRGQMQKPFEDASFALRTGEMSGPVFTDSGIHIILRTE

GI50 (LNCaP)	GI50 (PC-3)	IC50 [1]	Compound
2.34 µM	1.2 µM	–	COC(=O)[C@@]1(C)C(=O)C(C#N)=C[C@]2(C)[C@H]3C(=O)C=C4[C@@H]5[C@@H](C)[C@H](C)CC[C@]5(C)CC[C@@]4(C)[C@]3(C)CC[C@@H]12
1.79 µM	1.43 µM	–	C[C@H]1[C@H](C)CC[C@]2(C)CC[C@]3(C)C(=CC(=O)[C@@H]4[C@@]5(C)C=C(C(F)(F)F)C(=O)[C@](C)(C(=O)N6CCC(N7CCCCC7)CC6)[C@@H]5CC[C@]43C)[C@H]12
27.4 µM	31.9 µM	53 µM	CC(=O)O[C@@H]1CC[C@@]2(C)[C@@H](CC[C@]3(C)[C@@H]2C(=O)C=C2[C@@H]4[C@@H](C)[C@H](C)CC[C@]4(C)CC[C@]23C)[C@@]1(C)C(=O)O [AKBA]
7.82 µM	3.78 µM	–	COC(=O)[C@@]1(C)C(=O)C(C(F)(F)F)=C[C@]2(C)[C@H]3C(=O)C=C4[C@@H]5[C@@H](C)[C@H](C)CC[C@]5(C)CC[C@@]4(C)[C@]3(C)CC[C@@H]12
> 12.5 µM	> 12.5 µM	–	CC1CCN(C(=O)[C@@]2(C)C(=O)C(I)=C[C@]3(C)[C@H]4C(=O)C=C5[C@@H]6[C@@H](C)[C@H](C)CC[C@]6(C)CC[C@@]5(C)[C@]4(C)CC[C@@H]23)CC1
> 12.5 µM	> 12.5 µM	–	COC(=O)[C@@]1(C)C(=O)C(I)=C[C@]2(C)[C@H]3C(=O)C=C4[C@@H]5[C@@H](C)[C@H](C)CC[C@]5(C)CC[C@@]4(C)[C@]3(C)CC[C@@H]12
1.14 µM	2.89 µM	–	C[C@H]1[C@H](C)CC[C@]2(C)CC[C@]3(C)C(=CC(=O)[C@@H]4[C@@]5(C)C=C(C#N)C(=O)[C@](C)(C(=O)N6CCCCC6)[C@@H]5CC[C@]43C)[C@H]12
> 12.5 µM	> 12.5 µM	–	C[C@H]1[C@H](C)CC[C@]2(C)CC[C@]3(C)C(=CC(=O)[C@@H]4[C@@]5(C)C=C(I)C(=O)[C@](C)(C(=O)N6CCCCC6)[C@@H]5CC[C@]43C)[C@H]12
1.66 µM	0.45 µM	–	C[C@H]1[C@H](C)CC[C@]2(C)CC[C@]3(C)C(=CC(=O)[C@@H]4[C@@]5(C)C=C(C#N)C(=O)[C@](C)(C(=O)OCc6ccccc6)[C@@H]5CC[C@]43C)[C@H]12
2.98 µM	3.36 µM	4.29 µM	C[C@H]1[C@H](C)CC[C@]2(C)CC[C@]3(C)C(=CC(=O)[C@@H]4[C@@]5(C)C=C(I)C(=O)[C@](C)(C(=O)N6CCNCC6)[C@@H]5CC[C@]43C)[C@H]12
3.92 µM	5.11 µM	–	C[C@H]1[C@H](C)CC[C@]2(C)CC[C@]3(C)C(=CC(=O)[C@@H]4[C@@]5(C)C=C(C(F)(F)F)C(=O)[C@](C)(C(=O)OCc6ccccc6)[C@@H]5CC[C@]43C)[C@H]12
5.37 µM	3.76 µM	–	C[C@H]1[C@H](C)CC[C@]2(C)CC[C@]3(C)C(=CC(=O)[C@@H]4[C@@]5(C)C=C(C#N)C(=O)[C@](C)(C(=O)N6CCCC6)[C@@H]5CC[C@]43C)[C@H]12
3.59 µM	4.22 µM	–	C[C@H]1[C@H](C)CC[C@]2(C)CC[C@]3(C)C(=CC(=O)[C@@H]4[C@@]5(C)C=C(I)C(=O)[C@](C)(C(=O)N6CCC(N7CCCCC7)CC6)[C@@H]5CC[C@]43C)[C@H]12
2.18 µM	1.07 µM	9.6 µM	C[C@H]1[C@H](C)CC[C@]2(C)CC[C@]3(C)C(=CC(=O)[C@@H]4[C@@]5(C)C=C(C(F)(F)F)C(=O)[C@](C)(C(=O)N6CCNCC6)[C@@H]5CC[C@]43C)[C@H]12
> 12.5 µM	> 12.5 µM	–	COC(=O)[C@@]1(C)C(=O)C=C[C@]2(C)[C@H]3C(=O)C=C4[C@@H]5[C@@H](C)[C@H](C)CC[C@]5(C)CC[C@@]4(C)[C@]3(C)CC[C@@H]12

More lines, now with the values behind:

Compound	GI50 (LNCaP)	GI50 (PC-3)	IC50 [1]
C[C@H]1[C@H](C)CC[C@]2(C)CC[C@]3(C)C(=CC(=O)[C@@H]4[C@@]5(C)C=C(I)C(=O)[C@](C)(C(=O)O)[C@@H]5CC[C@]43C)[C@H]12	3.78 µM	4.65 µM	–
CC1CCN(C(=O)[C@@]2(C)C(=O)C(C(F)(F)F)=C[C@]3(C)[C@H]4C(=O)C=C5[C@@H]6[C@@H](C)[C@H](C)CC[C@]6(C)CC[C@@]5(C)[C@]4(C)CC[C@@H]23)CC1	4.71 µM	2.48 µM	–
CC1CCN(C(=O)[C@@]2(C)C(=O)C(C#N)=C[C@]3(C)[C@H]4C(=O)C=C5[C@@H]6[C@@H](C)[C@H](C)CC[C@]6(C)CC[C@@]5(C)[C@]4(C)CC[C@@H]23)CC1	3.82 µM	2.07 µM	–
C[C@H]1[C@H](C)CC[C@]2(C)CC[C@]3(C)C(=CC(=O)[C@@H]4[C@@]5(C)C=C(C(F)(F)F)C(=O)[C@](C)(C(=O)N6CCCCC6)[C@@H]5CC[C@]43C)[C@H]12	3.21 µM	3.27 µM	–
C[C@H]1[C@H](C)CC[C@]2(C)CC[C@]3(C)C(=CC(=O)[C@@H]4[C@@]5(C)C=C(C#N)C(=O)[C@](C)(C(=O)O)[C@@H]5CC[C@]43C)[C@H]12	0.7 µM	0.18 µM	–
C[C@H]1[C@H](C)CC[C@]2(C)CC[C@]3(C)C(=CC(=O)[C@@H]4[C@@]5(C)C=C(I)C(=O)[C@](C)(C(=O)N6CCCC6)[C@@H]5CC[C@]43C)[C@H]12	> 12.5 µM	> 12.5 µM	–
C[C@H]1[C@H](C)CC[C@]2(C)CC[C@]3(C)C(=CC(=O)[C@@H]4[C@@]5(C)C=C(C#N)C(=O)[C@](C)(C(=O)N6CCC(N7CCCCC7)CC6)[C@@H]5CC[C@]43C)[C@H]12	0.67 µM	0.13 µM	–
C[C@H]1[C@H](C)CC[C@]2(C)CC[C@]3(C)C(=CC(=O)[C@@H]4[C@@]5(C)C=C(I)C(=O)[C@](C)(C(=O)OCc6ccccc6)[C@@H]5CC[C@]43C)[C@H]12	> 12.5 µM	> 12.5 µM	–
C[C@H]1[C@H](C)CC[C@]2(C)CC[C@]3(C)C(=CC(=O)[C@@H]4[C@@]5(C)C=C(C(F)(F)F)C(=O)[C@](C)(C(=O)N6CCCC6)[C@@H]5CC[C@]43C)[C@H]12	3.29 µM	2.64 µM	–
C[C@H]1[C@H](C)CC[C@]2(C)CC[C@]3(C)C(=CC(=O)[C@@H]4[C@@]5(C)C=C(C(F)(F)F)C(=O)[C@](C)(C(=O)O)[C@@H]5CC[C@]43C)[C@H]12	4.26 µM	4.38 µM	–
C[C@H]1[C@H](C)CC[C@]2(C)CC[C@]3(C)C(=CC(=O)[C@@H]4[C@@]5(C)C=CC(=O)[C@](C)(C(=O)OCc6ccccc6)[C@@H]5CC[C@]43C)[C@H]12	> 12.5 µM	> 12.5 µM	–
